The target of the experiment is T1, Tyrosinase.
T1 construct: gene PPO3
Kind of experiment: L-DOPA oxidation, […] nm. Format: biochemical. As to conditions: substrate L-DOPA 5 mM stock; 50 mM phosphate pH 6.5; 37 °C; 10 min preincubation.

Structures are written as SMILES.

In turn, `O=c1c(O)c(-c2ccc(O)c(O)c2)oc2cc(O)cc(O)c12` [Quercetin] gave a Dermatoprotective of 242.99 ± 2.67 µg/mL.
